Measurements as given in patent publication US20240382597A1, “FORMULATIONS OF ANTI-INFLAMMATORY AGENTS COMPRISING MSM WITH ENHANCED SOLUBILITY IN WATER” (LIVIONEX, Inc., priority 2021, published 2024).

Key:
[1] = solubility in water of anti-inflammatory agents, alone and in formulations comprising MSM; format: physicochemical
Description: The increases in solubility in water of certain representative anti-inflammatory agents in formulations comprising MSM (about 5.4% w/w; range between 0.1 wt. % to about 15 wt. %, typically around 5%) are as follows: […]

[2] = at 79° F.; cited from earlier work
[3] = in formulations comprising MSM (about 5.4% w/w; range 0.1 wt. % to about 15 wt. %)
[4] = without MSM (starting value of the increase)

Row | Compound | solubility in water [1, 3] | solubility in water [1, 4] | water solubility [2] [% w/v]
1 | COC(=O)c1ccccc1O [Methyl salicylate, methyl salicylate] | 0.013 mg per ml of water | 0.00065 mg per ml of water | –
2 | C[C@@H]1C[C@H]2[C@@H]3CCC4=CC(=O)C=C[C@]4(C)[C@@]3(F)[C@@H](O)C[C@]2(C)[C@@]1(O)C(=O)CO [Dexamethsone, dexamethasone] | ~250 mg per ml of water | insoluble | –
3 | O=C(O)Cc1ccccc1Nc1c(Cl)cccc1Cl [Diclofenac, diclofenac] | 50 mg per ml of water | 0.004 mg per ml of water | –
4 | CC(C)Cc1ccc(C(C)C(=O)O)cc1 (stereo not drawn) [Ibuprofen, ibuprofen] | ~150 mg per ml of water | insoluble | –
5 | CS(C)(=O)=O [MSM, methylsulfonylmethane] | – | – | 34
